Experimental data from patent US9062124B2, “GIP-based mixed agonists for treatment of metabolic disorders and obesity” (priority 2008, dated 2015).
Where a SMILES comes first, the peptide text is derived from it. Bridges are numbered along the chain shown (N, C = ends). [ ]: non-standard residue; d: D form. The star is where a group is joined. Aib = CC(C)(N)C(=O)O; Bz = O=C(c1ccccc1)*

How the values were obtained:
Format in all cases: cell-based
GLP-1 receptor = target: T1, GLP-1 receptor (Homo sapiens, UniProt P43220); experiment: cAMP synthesis functional assay (firefly luciferase reporter in HEK293 cells), GLP-1 receptor
T1 construct: expressed in transfected cells; host or cells: HEK293

glucagon receptor = target: T2, glucagon receptor (Homo sapiens, UniProt P47871); experiment: cAMP synthesis functional assay (firefly luciferase reporter in HEK293 cells), glucagon receptor
T2 construct: expressed in transfected cells; host or cells: HEK293

GIP receptor = target: T3, GIP receptor (Homo sapiens, UniProt P48546); experiment: cAMP synthesis functional assay (firefly luciferase reporter in HEK293 cells), GIP receptor; details: for EC50: GIP Receptor EC50, cAMP luciferase reporter assay as in Example 16
T3 construct: expressed in transfected cells; host or cells: HEK293
T3 sequence (P48546 22-466): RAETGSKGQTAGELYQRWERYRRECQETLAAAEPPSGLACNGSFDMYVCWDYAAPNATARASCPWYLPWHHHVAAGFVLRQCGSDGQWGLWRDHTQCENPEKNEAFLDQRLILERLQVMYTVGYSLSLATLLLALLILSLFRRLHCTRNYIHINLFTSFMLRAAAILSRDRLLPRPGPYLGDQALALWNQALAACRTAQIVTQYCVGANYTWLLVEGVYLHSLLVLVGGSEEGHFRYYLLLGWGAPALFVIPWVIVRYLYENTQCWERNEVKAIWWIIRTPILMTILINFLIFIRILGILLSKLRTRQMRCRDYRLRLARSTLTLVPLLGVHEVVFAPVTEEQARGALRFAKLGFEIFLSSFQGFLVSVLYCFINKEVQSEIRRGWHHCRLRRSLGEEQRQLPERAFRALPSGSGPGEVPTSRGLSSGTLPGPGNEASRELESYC

[1] = Table 1, relative to the native hormone of the indicated receptor
[2] = Table 4, relative to the native hormone
[3] = relative to the standard (Std.) EC50 of the same run

T1 sequence (P43220 24-463, species assumed): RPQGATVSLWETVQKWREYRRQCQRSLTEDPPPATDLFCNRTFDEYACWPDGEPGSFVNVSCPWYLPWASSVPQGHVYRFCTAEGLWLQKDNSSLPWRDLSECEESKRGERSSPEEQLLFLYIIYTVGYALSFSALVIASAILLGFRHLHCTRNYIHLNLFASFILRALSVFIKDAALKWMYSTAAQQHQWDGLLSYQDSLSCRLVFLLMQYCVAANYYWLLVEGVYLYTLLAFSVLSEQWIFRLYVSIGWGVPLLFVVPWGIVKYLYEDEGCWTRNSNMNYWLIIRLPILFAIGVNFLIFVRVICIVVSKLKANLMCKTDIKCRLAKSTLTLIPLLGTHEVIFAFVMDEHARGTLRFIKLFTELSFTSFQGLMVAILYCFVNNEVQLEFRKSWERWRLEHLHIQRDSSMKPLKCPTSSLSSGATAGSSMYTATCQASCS
T2 sequence (P47871 26-477): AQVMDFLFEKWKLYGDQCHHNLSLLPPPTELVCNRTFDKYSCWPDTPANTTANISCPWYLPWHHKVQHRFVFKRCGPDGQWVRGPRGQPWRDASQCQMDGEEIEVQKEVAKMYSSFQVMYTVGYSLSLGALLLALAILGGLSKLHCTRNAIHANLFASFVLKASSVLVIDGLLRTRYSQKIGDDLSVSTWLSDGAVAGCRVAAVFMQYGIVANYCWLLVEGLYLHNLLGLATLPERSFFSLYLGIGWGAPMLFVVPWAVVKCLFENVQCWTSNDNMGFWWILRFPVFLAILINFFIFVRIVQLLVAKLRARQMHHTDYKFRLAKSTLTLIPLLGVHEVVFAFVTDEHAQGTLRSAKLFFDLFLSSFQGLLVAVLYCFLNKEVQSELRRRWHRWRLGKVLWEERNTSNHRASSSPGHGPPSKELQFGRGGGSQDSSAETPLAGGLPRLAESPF

SMILES	GLP-1 Receptor relative activity (GLP-1 receptor; [1]) [%]	Glucagon Receptor relative activity (glucagon receptor; [1]) [%]	GIP Receptor relative activity (GIP receptor; [1]) [%]	GLP-1 Receptor relative activity (GLP-1 receptor; [3]) [%]	Glucagon Receptor relative activity (glucagon receptor; [3]) [%]	EC50 (GIP receptor) [pM]	GIP Receptor relative activity (GIP receptor; [3]) [%]	other results
CC[C@H](C)[C@H](NC(=O)[C@H](CO)NC(=O)[C@H](Cc1ccc(O)cc1)NC(=O)[C@H](CC(=O)O)NC(=O)[C@H](CO)NC(=O)[C@@H](NC(=O)[C@H](Cc1ccccc1)NC(=O)[C@@H](NC(=O)CNC(=O)[C@H](CCC(N)=O)NC(=O)[C@H](CO)NC(=O)CNC(=O)c1ccccc1)[C@@H](C)O)[C@@H](C)O)C(=O)N[C@@H](Cc1ccc(O)cc1)C(=O)N[C@@H](CC(C)C)C(=O)N[C@@H](CC(=O)O)C(=O)N[C@H]1CCC(=O)NCCCC[C@@H](C(=O)N[C@@H](CCC(=O)O)C(=O)N[C@@H](Cc2ccccc2)C(=O)N[C@H](C(=O)N[C@@H](CC(N)=O)C(=O)N[C@@H](Cc2c[nH]c3ccccc23)C(=O)N[C@@H](CC(C)C)C(=O)N[C@@H](CC(C)C)C(=O)N[C@@H](C)C(=O)NCC(=O)NCC(=O)N2CCC[C@H]2C(=O)N[C@@H](CO)C(=O)N[C@@H](CO)C(=O)NCC(=O)N[C@@H](C)C(=O)N2CCC[C@H]2C(=O)N2CCC[C@H]2C(=O)N2CCC[C@H]2C(=O)N[C@@H](CO)C(N)=O)C(C)C)NC(=O)[C@H](C)NC(=O)[C@H](C)NC(=O)[C@H](CCC(N)=O)NC1=O [mt-154] (Bz-GSQGTFTSDYSIYLDEQAAKEFVNWLLAGGPSSGAPPPS-NH2; lactam 16-20)	0.70	7.40	1.07					
CC[C@H](C)[C@H](NC(=O)[C@H](CO)NC(=O)[C@H](Cc1ccc(O)cc1)NC(=O)[C@H](CC(=O)O)NC(=O)[C@H](CO)NC(=O)[C@@H](NC(=O)[C@H](Cc1ccccc1)NC(=O)[C@@H](NC(=O)CNC(=O)[C@H](CCC(N)=O)NC(=O)[C@H](CO)NC(=O)[C@@H](N)Cc1ccc(O)cc1)[C@@H](C)O)[C@@H](C)CC)C(=O)N[C@@H](Cc1ccc(O)cc1)C(=O)N[C@@H](CC(C)C)C(=O)N[C@@H](CC(=O)O)C(=O)N[C@H]1CCC(=O)NCCCC[C@@H](C(=O)N[C@@H](CCC(=O)O)C(=O)N[C@@H](Cc2ccccc2)C(=O)N[C@H](C(=O)N[C@@H](CC(N)=O)C(=O)N[C@@H](Cc2c[nH]c3ccccc23)C(=O)N[C@@H](CC(C)C)C(=O)N[C@@H](CC(C)C)C(=O)N[C@@H](C)C(=O)NCC(=O)NCC(=O)N2CCC[C@H]2C(=O)N[C@@H](CO)C(=O)N[C@@H](CO)C(=O)NCC(=O)N[C@@H](C)C(=O)N2CCC[C@H]2C(=O)N2CCC[C@H]2C(=O)N2CCC[C@H]2C(=O)N[C@@H](CO)C(N)=O)C(C)C)NC(=O)[C@H](C)NC(=O)[C@H](C)NC(=O)[C@H](CCC(N)=O)NC1=O [mt-150] (H-YSQGTFISDYSIYLDEQAAKEFVNWLLAGGPSSGAPPPS-NH2; lactam 16-20; N-terminus assumed)	1.09	316.67	26.72					
CC[C@H](C)[C@H](NC(=O)[C@H](CO)NC(=O)[C@H](Cc1ccc(O)cc1)NC(=O)[C@H](CC(=O)O)NC(=O)[C@H](CO)NC(=O)[C@@H](NC(=O)[C@H](Cc1ccccc1)NC(=O)[C@@H](NC(=O)CNC(=O)[C@H](CCC(=O)O)NC(=O)[C@H](C)NC(=O)[C@@H](N)Cc1c[nH]cn1)[C@@H](C)O)[C@@H](C)CC)C(=O)N[C@@H](C)C(=O)N[C@@H](CCSC)C(=O)N[C@@H](CC(=O)O)C(=O)N[C@H]1CCC(=O)NCCCC[C@@H](C(=O)N[C@@H](CC(=O)O)C(=O)N[C@@H](Cc2ccccc2)C(=O)N[C@H](C(=O)N[C@@H](CC(N)=O)C(=O)N[C@@H](Cc2c[nH]c3ccccc23)C(=O)N[C@@H](CC(C)C)C(=O)N[C@@H](CC(C)C)C(=O)N[C@@H](C)C(=O)N[C@@H](CCC(N)=O)C(N)=O)C(C)C)NC(=O)[C@H](CCC(N)=O)NC(=O)[C@H](Cc2c[nH]cn2)NC(=O)[C@H]([C@@H](C)CC)NC1=O [mt-95] (H-HAEGTFISDYSIAMDEIHQKDFVNWLLAQ-NH2; lactam 16-20; N-terminus assumed)	0.08	0.04	10.54					
CC[C@H](C)[C@H](NC(=O)[C@H](CO)NC(=O)[C@H](Cc1ccc(O)cc1)NC(=O)[C@H](CC(=O)O)NC(=O)[C@H](CO)NC(=O)[C@@H](NC(=O)[C@H](Cc1ccccc1)NC(=O)[C@@H](NC(=O)CNC(=O)[C@H](CCC(N)=O)NC(=O)C(C)(C)NC(=O)[C@@H](N)Cc1ccc(O)cc1)[C@@H](C)O)[C@@H](C)O)C(=O)N[C@@H](Cc1ccc(O)cc1)C(=O)N[C@@H](CC(C)C)C(=O)N[C@@H](CC(=O)O)C(=O)N[C@@H](CCCCN)C(=O)N[C@@H](CCC(N)=O)C(=O)N[C@@H](C)C(=O)N[C@@H](C)C(=O)NC(C)(C)C(=O)N[C@@H](CCC(=O)O)C(=O)N[C@@H](Cc1ccccc1)C(=O)N[C@H](C(=O)N[C@@H](CC(N)=O)C(=O)N[C@@H](Cc1c[nH]c2ccccc12)C(=O)N[C@@H](CC(C)C)C(=O)N[C@@H](CCSC)C(=O)N[C@@H](CC(N)=O)C(=O)NCC(=O)NCC(=O)N1CCC[C@H]1C(=O)N[C@@H](CO)C(=O)N[C@@H](CO)C(=O)NCC(=O)N[C@@H](C)C(=O)N1CCC[C@H]1C(=O)N1CCC[C@H]1C(=O)N1CCC[C@H]1C(=O)N[C@@H](CO)C(=O)N[C@@H](CCCCN)C(N)=O)C(C)C [mt-356] (H-Y[Aib]QGTFTSDYSIYLDKQAA[Aib]EFVNWLMNGGPSSGAPPPSK-NH2; N-terminus assumed)								GLP-1 Receptor relative activity (GLP-1 receptor; [2]): 224.02%; Glucagon Receptor relative activity (glucagon receptor; [2]): 126.06%; GIP Receptor relative activity (GIP receptor; [2]): 25.66%
CCCCCCCCCCCCCC(=O)NCCCC[C@@H](NC(=O)[C@H](CO)NC(=O)[C@@H]1CCCN1C(=O)[C@@H]1CCCN1C(=O)[C@@H]1CCCN1C(=O)[C@H](C)NC(=O)CNC(=O)[C@H](CO)NC(=O)[C@H](CO)NC(=O)[C@@H]1CCCN1C(=O)CNC(=O)CNC(=O)[C@H](C)NC(=O)[C@H](CC(C)C)NC(=O)[C@H](CC(C)C)NC(=O)[C@H](Cc1c[nH]c2ccccc12)NC(=O)[C@H](CS)NC(=O)[C@@H](NC(=O)[C@H](Cc1ccccc1)NC(=O)[C@H](CCC(=O)O)NC(=O)C(C)(C)NC(=O)[C@H](C)NC(=O)[C@H](C)NC(=O)[C@H](CCC(N)=O)NC(=O)[C@H](CCCCN)NC(=O)[C@H](CC(=O)O)NC(=O)[C@H](CC(C)C)NC(=O)[C@H](Cc1ccc(O)cc1)NC(=O)[C@@H](NC(=O)[C@H](CO)NC(=O)[C@H](Cc1ccc(O)cc1)NC(=O)[C@H](CC(=O)O)NC(=O)[C@H](CO)NC(=O)[C@@H](NC(=O)[C@H](Cc1ccccc1)NC(=O)[C@@H](NC(=O)CNC(=O)[C@H](CCC(=O)O)NC(=O)C(C)(C)NC(=O)[C@@H](N)Cc1ccc(O)cc1)[C@@H](C)O)[C@@H](C)O)[C@@H](C)CC)C(C)C)C(N)=O [mt-333]				85.71	2.80	3.4	226.47	EC50 (GLP-1 receptor; GLP-1 Receptor EC50, cAMP luciferase reporter assay as in Example 16): 2.8 pM; EC50 (glucagon receptor; Glucagon Receptor EC50, cAMP luciferase reporter assay as in Example 16): 690 pM
CC[C@H](C)[C@H](NC(=O)[C@H](CO)NC(=O)[C@H](Cc1ccc(O)cc1)NC(=O)[C@H](CC(=O)O)NC(=O)[C@H](CO)NC(=O)[C@@H](NC(=O)[C@H](Cc1ccccc1)NC(=O)[C@@H](NC(=O)CNC(=O)[C@H](CCC(=O)O)NC(=O)C(C)(C)NC(=O)[C@@H](N)Cc1ccc(O)cc1)[C@@H](C)O)[C@@H](C)O)C(=O)N[C@@H](Cc1ccc(O)cc1)C(=O)N[C@@H](CC(C)C)C(=O)N[C@@H](CC(=O)O)C(=O)N[C@@H](CCCCN)C(=O)N[C@@H](CCC(N)=O)C(=O)N[C@@H](C)C(=O)N[C@@H](C)C(=O)NC(C)(C)C(=O)N[C@@H](CCC(=O)O)C(=O)N[C@@H](Cc1ccccc1)C(=O)N[C@H](C(=O)N[C@@H](CC(N)=O)C(=O)N[C@@H](Cc1c[nH]c2ccccc12)C(=O)N[C@@H](CC(C)C)C(=O)N[C@@H](CC(C)C)C(=O)N[C@@H](C)C(=O)NCC(=O)NCC(=O)N1CCC[C@H]1C(=O)N[C@@H](CO)C(=O)N[C@@H](CO)C(=O)NCC(=O)N[C@@H](C)C(=O)N1CCC[C@H]1C(=O)N1CCC[C@H]1C(=O)N1CCC[C@H]1C(=O)N[C@@H](CO)C(=O)N[C@@H](CCCCN)C(=O)N[C@@H](CS)C(N)=O)C(C)C [mt-340]				100.00	0.24	2.8	328.57	
